Measurements published in paper PMC2943425 (Journal of medicinal chemistry, 2010).

Columns and labels:
[1] = target: Substance P receptors (GPI) (Cavia porcellus, UniProt P30547); assay: GPI substance P antagonist assay in the presence of 1 μM naloxone; parameters: species or system guinea pig; conditions: against Substance P induced contraction, n = 4
[2] = test system: neuropathic pain; conditions: cited from earlier work

Sequence of Substance P receptors (GPI) (P30547 whole entry): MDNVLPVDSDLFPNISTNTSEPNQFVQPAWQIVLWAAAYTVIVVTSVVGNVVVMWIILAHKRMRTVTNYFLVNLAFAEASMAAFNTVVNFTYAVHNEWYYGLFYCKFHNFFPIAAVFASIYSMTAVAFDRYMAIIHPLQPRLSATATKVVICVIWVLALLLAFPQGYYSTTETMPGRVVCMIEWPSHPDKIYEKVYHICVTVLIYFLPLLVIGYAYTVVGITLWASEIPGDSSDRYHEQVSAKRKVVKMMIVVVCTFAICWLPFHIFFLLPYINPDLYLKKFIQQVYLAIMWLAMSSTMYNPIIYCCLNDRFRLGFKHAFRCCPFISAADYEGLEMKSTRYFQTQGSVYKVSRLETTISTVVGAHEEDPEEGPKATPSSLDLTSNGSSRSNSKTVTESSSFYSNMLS

Molecule | SP antagonist Ke, GPI [1] [nM] | effect on neuropathic pain in animal models [2] | opioid-induced tolerance in animal models [2]
CC(=O)N[C@@H](Cc1c[nH]c2ccccc12)C(=O)OCc1cc(C(F)(F)F)cc(C(F)(F)F)c1 [L-732,138] | 250 ± 87 | – | –
Tyr^1-D-Ala^2-Gly^3-Phe^4-Met^5-Pro^6-Leu^7-Trp^8-O-[3′,5′-(CF3)2-Bzl] [TY005] | – | powerful attenuation of neuropathic pain | without producing the opioid-induced tolerance
